# The NIST ThermoML archive (doi:10.1021/je9004992)
# ± gives the expanded uncertainty stated by the source.
# Assay: molar heat capacity at constant pressure
# Conditions: Liquid, Small sample (50 mg) DSC
smiles,measurement,setting,value
CCCCn1cc[n+](C)c1.F[B-](F)(F)F [1-butyl-3-methylimidazolium tetrafluoroborate],molar heat capacity at constant pressure,"283.15 K, 100 kPa",360.25 ± 5.6 J/K/mol
same,molar heat capacity at constant pressure,"283.15 K, 2000 kPa",360.28 ± 5.6 J/K/mol
same,molar heat capacity at constant pressure,"283.15 K, 4000 kPa",360.31 ± 5.6 J/K/mol
same,molar heat capacity at constant pressure,"283.15 K, 6000 kPa",360.34 ± 5.6 J/K/mol
same,molar heat capacity at constant pressure,"283.15 K, 8000 kPa",360.37 ± 5.6 J/K/mol
same,molar heat capacity at constant pressure,"283.15 K, 10000 kPa",360.39 ± 5.6 J/K/mol
same,molar heat capacity at constant pressure,"283.15 K, 12000 kPa",360.42 ± 5.6 J/K/mol
same,molar heat capacity at constant pressure,"283.15 K, 14000 kPa",360.45 ± 5.6 J/K/mol
same,molar heat capacity at constant pressure,"283.15 K, 20000 kPa",360.54 ± 5.6 J/K/mol
same,molar heat capacity at constant pressure,"283.15 K, 30000 kPa",360.68 ± 5.6 J/K/mol
same,molar heat capacity at constant pressure,"283.15 K, 40000 kPa",360.82 ± 5.6 J/K/mol
same,molar heat capacity at constant pressure,"283.15 K, 50000 kPa",360.96 ± 5.6 J/K/mol
same,molar heat capacity at constant pressure,"283.15 K, 60000 kPa",361.11 ± 5.6 J/K/mol
same,molar heat capacity at constant pressure,"288.15 K, 100 kPa",362.17 ± 5.6 J/K/mol
same,molar heat capacity at constant pressure,"288.15 K, 2000 kPa",362.2 ± 5.6 J/K/mol
same,molar heat capacity at constant pressure,"288.15 K, 4000 kPa",362.22 ± 5.6 J/K/mol
same,molar heat capacity at constant pressure,"288.15 K, 6000 kPa",362.24 ± 5.6 J/K/mol
same,molar heat capacity at constant pressure,"288.15 K, 8000 kPa",362.27 ± 5.6 J/K/mol
same,molar heat capacity at constant pressure,"288.15 K, 10000 kPa",362.29 ± 5.6 J/K/mol
same,molar heat capacity at constant pressure,"288.15 K, 12000 kPa",362.31 ± 5.6 J/K/mol
same,molar heat capacity at constant pressure,"288.15 K, 14000 kPa",362.34 ± 5.6 J/K/mol
same,molar heat capacity at constant pressure,"288.15 K, 20000 kPa",362.4 ± 5.6 J/K/mol
same,molar heat capacity at constant pressure,"288.15 K, 30000 kPa",362.52 ± 5.6 J/K/mol
same,molar heat capacity at constant pressure,"288.15 K, 40000 kPa",362.64 ± 5.6 J/K/mol
same,molar heat capacity at constant pressure,"288.15 K, 50000 kPa",362.75 ± 5.6 J/K/mol
same,molar heat capacity at constant pressure,"288.15 K, 60000 kPa",362.87 ± 5.6 J/K/mol
same,molar heat capacity at constant pressure,"293.15 K, 100 kPa",364.16 ± 5.6 J/K/mol
same,molar heat capacity at constant pressure,"293.15 K, 2000 kPa",364.17 ± 5.6 J/K/mol
same,molar heat capacity at constant pressure,"293.15 K, 4000 kPa",364.19 ± 5.6 J/K/mol
same,molar heat capacity at constant pressure,"293.15 K, 6000 kPa",364.21 ± 5.6 J/K/mol
same,molar heat capacity at constant pressure,"293.15 K, 8000 kPa",364.23 ± 5.6 J/K/mol
same,molar heat capacity at constant pressure,"293.15 K, 10000 kPa",364.25 ± 5.6 J/K/mol
same,molar heat capacity at constant pressure,"293.15 K, 12000 kPa",364.27 ± 5.6 J/K/mol
same,molar heat capacity at constant pressure,"293.15 K, 14000 kPa",364.29 ± 5.6 J/K/mol
same,molar heat capacity at constant pressure,"293.15 K, 20000 kPa",364.35 ± 5.6 J/K/mol
same,molar heat capacity at constant pressure,"293.15 K, 30000 kPa",364.44 ± 5.7 J/K/mol
same,molar heat capacity at constant pressure,"293.15 K, 40000 kPa",364.54 ± 5.7 J/K/mol
same,molar heat capacity at constant pressure,"293.15 K, 50000 kPa",364.64 ± 5.7 J/K/mol
same,molar heat capacity at constant pressure,"293.15 K, 60000 kPa",364.73 ± 5.7 J/K/mol
same,molar heat capacity at constant pressure,"298.15 K, 100 kPa",366.2 ± 5.7 J/K/mol
same,molar heat capacity at constant pressure,"298.15 K, 2000 kPa",366.21 ± 5.7 J/K/mol
same,molar heat capacity at constant pressure,"298.15 K, 4000 kPa",366.23 ± 5.7 J/K/mol
same,molar heat capacity at constant pressure,"298.15 K, 6000 kPa",366.25 ± 5.7 J/K/mol
same,molar heat capacity at constant pressure,"298.15 K, 8000 kPa",366.26 ± 5.7 J/K/mol
same,molar heat capacity at constant pressure,"298.15 K, 10000 kPa",366.28 ± 5.7 J/K/mol
same,molar heat capacity at constant pressure,"298.15 K, 12000 kPa",366.3 ± 5.7 J/K/mol
same,molar heat capacity at constant pressure,"298.15 K, 14000 kPa",366.31 ± 5.7 J/K/mol
same,molar heat capacity at constant pressure,"298.15 K, 20000 kPa",366.36 ± 5.7 J/K/mol
same,molar heat capacity at constant pressure,"298.15 K, 30000 kPa",366.45 ± 5.7 J/K/mol
same,molar heat capacity at constant pressure,"298.15 K, 40000 kPa",366.53 ± 5.7 J/K/mol
same,molar heat capacity at constant pressure,"298.15 K, 50000 kPa",366.61 ± 5.7 J/K/mol
same,molar heat capacity at constant pressure,"298.15 K, 60000 kPa",366.7 ± 5.7 J/K/mol
same,molar heat capacity at constant pressure,"303.15 K, 100 kPa",368.3 ± 5.7 J/K/mol
same,molar heat capacity at constant pressure,"303.15 K, 2000 kPa",368.31 ± 5.7 J/K/mol
same,molar heat capacity at constant pressure,"303.15 K, 4000 kPa",368.33 ± 5.7 J/K/mol
same,molar heat capacity at constant pressure,"303.15 K, 6000 kPa",368.34 ± 5.7 J/K/mol
same,molar heat capacity at constant pressure,"303.15 K, 8000 kPa",368.36 ± 5.7 J/K/mol
same,molar heat capacity at constant pressure,"303.15 K, 10000 kPa",368.37 ± 5.7 J/K/mol
same,molar heat capacity at constant pressure,"303.15 K, 12000 kPa",368.39 ± 5.7 J/K/mol
same,molar heat capacity at constant pressure,"303.15 K, 14000 kPa",368.4 ± 5.7 J/K/mol
same,molar heat capacity at constant pressure,"303.15 K, 20000 kPa",368.45 ± 5.7 J/K/mol
same,molar heat capacity at constant pressure,"303.15 K, 30000 kPa",368.53 ± 5.7 J/K/mol
same,molar heat capacity at constant pressure,"303.15 K, 40000 kPa",368.61 ± 5.7 J/K/mol
same,molar heat capacity at constant pressure,"303.15 K, 50000 kPa",368.69 ± 5.7 J/K/mol
same,molar heat capacity at constant pressure,"303.15 K, 60000 kPa",368.77 ± 5.7 J/K/mol
same,molar heat capacity at constant pressure,"308.15 K, 100 kPa",370.45 ± 5.7 J/K/mol
same,molar heat capacity at constant pressure,"308.15 K, 2000 kPa",370.47 ± 5.7 J/K/mol
same,molar heat capacity at constant pressure,"308.15 K, 4000 kPa",370.49 ± 5.7 J/K/mol
same,molar heat capacity at constant pressure,"308.15 K, 6000 kPa",370.5 ± 5.7 J/K/mol
same,molar heat capacity at constant pressure,"308.15 K, 8000 kPa",370.52 ± 5.7 J/K/mol
same,molar heat capacity at constant pressure,"308.15 K, 10000 kPa",370.53 ± 5.7 J/K/mol
same,molar heat capacity at constant pressure,"308.15 K, 12000 kPa",370.55 ± 5.7 J/K/mol
same,molar heat capacity at constant pressure,"308.15 K, 14000 kPa",370.57 ± 5.7 J/K/mol
same,molar heat capacity at constant pressure,"308.15 K, 20000 kPa",370.61 ± 5.7 J/K/mol
same,molar heat capacity at constant pressure,"308.15 K, 30000 kPa",370.69 ± 5.7 J/K/mol
same,molar heat capacity at constant pressure,"308.15 K, 40000 kPa",370.77 ± 5.7 J/K/mol
same,molar heat capacity at constant pressure,"308.15 K, 50000 kPa",370.85 ± 5.8 J/K/mol
same,molar heat capacity at constant pressure,"308.15 K, 60000 kPa",370.93 ± 5.8 J/K/mol
same,molar heat capacity at constant pressure,"313.15 K, 100 kPa",372.67 ± 5.8 J/K/mol
same,molar heat capacity at constant pressure,"313.15 K, 2000 kPa",372.69 ± 5.8 J/K/mol
same,molar heat capacity at constant pressure,"313.15 K, 4000 kPa",372.71 ± 5.8 J/K/mol
same,molar heat capacity at constant pressure,"313.15 K, 6000 kPa",372.73 ± 5.8 J/K/mol
same,molar heat capacity at constant pressure,"313.15 K, 8000 kPa",372.74 ± 5.8 J/K/mol
same,molar heat capacity at constant pressure,"313.15 K, 10000 kPa",372.76 ± 5.8 J/K/mol
same,molar heat capacity at constant pressure,"313.15 K, 12000 kPa",372.78 ± 5.8 J/K/mol
same,molar heat capacity at constant pressure,"313.15 K, 14000 kPa",372.8 ± 5.8 J/K/mol
same,molar heat capacity at constant pressure,"313.15 K, 20000 kPa",372.85 ± 5.8 J/K/mol
same,molar heat capacity at constant pressure,"313.15 K, 30000 kPa",372.94 ± 5.8 J/K/mol
same,molar heat capacity at constant pressure,"313.15 K, 40000 kPa",373.03 ± 5.8 J/K/mol
same,molar heat capacity at constant pressure,"313.15 K, 50000 kPa",373.12 ± 5.8 J/K/mol
same,molar heat capacity at constant pressure,"313.15 K, 60000 kPa",373.21 ± 5.8 J/K/mol
same,molar heat capacity at constant pressure,"318.15 K, 100 kPa",374.95 ± 5.8 J/K/mol
same,molar heat capacity at constant pressure,"318.15 K, 2000 kPa",374.97 ± 5.8 J/K/mol
same,molar heat capacity at constant pressure,"318.15 K, 4000 kPa",374.99 ± 5.8 J/K/mol
same,molar heat capacity at constant pressure,"318.15 K, 6000 kPa",375.01 ± 5.8 J/K/mol
same,molar heat capacity at constant pressure,"318.15 K, 8000 kPa",375.03 ± 5.8 J/K/mol
same,molar heat capacity at constant pressure,"318.15 K, 10000 kPa",375.05 ± 5.8 J/K/mol
same,molar heat capacity at constant pressure,"318.15 K, 12000 kPa",375.08 ± 5.8 J/K/mol
same,molar heat capacity at constant pressure,"318.15 K, 14000 kPa",375.1 ± 5.8 J/K/mol
same,molar heat capacity at constant pressure,"318.15 K, 20000 kPa",375.16 ± 5.8 J/K/mol
same,molar heat capacity at constant pressure,"318.15 K, 30000 kPa",375.26 ± 5.8 J/K/mol
same,molar heat capacity at constant pressure,"318.15 K, 40000 kPa",375.37 ± 5.8 J/K/mol
same,molar heat capacity at constant pressure,"318.15 K, 50000 kPa",375.47 ± 5.8 J/K/mol
same,molar heat capacity at constant pressure,"318.15 K, 60000 kPa",375.58 ± 5.8 J/K/mol
same,molar heat capacity at constant pressure,"323.15 K, 100 kPa",377.29 ± 5.8 J/K/mol
same,molar heat capacity at constant pressure,"323.15 K, 2000 kPa",377.31 ± 5.8 J/K/mol
same,molar heat capacity at constant pressure,"323.15 K, 4000 kPa",377.34 ± 5.8 J/K/mol
same,molar heat capacity at constant pressure,"323.15 K, 6000 kPa",377.36 ± 5.8 J/K/mol
same,molar heat capacity at constant pressure,"323.15 K, 8000 kPa",377.39 ± 5.8 J/K/mol
same,molar heat capacity at constant pressure,"323.15 K, 10000 kPa",377.41 ± 5.8 J/K/mol
same,molar heat capacity at constant pressure,"323.15 K, 12000 kPa",377.44 ± 5.8 J/K/mol
same,molar heat capacity at constant pressure,"323.15 K, 14000 kPa",377.47 ± 5.8 J/K/mol
same,molar heat capacity at constant pressure,"323.15 K, 20000 kPa",377.54 ± 5.8 J/K/mol
same,molar heat capacity at constant pressure,"323.15 K, 30000 kPa",377.67 ± 5.8 J/K/mol
same,molar heat capacity at constant pressure,"323.15 K, 40000 kPa",377.8 ± 5.8 J/K/mol
same,molar heat capacity at constant pressure,"323.15 K, 50000 kPa",377.93 ± 5.8 J/K/mol
same,molar heat capacity at constant pressure,"323.15 K, 60000 kPa",378.05 ± 5.9 J/K/mol
